Data reported in publication PMC5643462, “Encrypted Antimicrobial Peptides from Plant Proteins” (Scientific Reports, 2017).
Where two headings read alike, the source gives them in different places. No end group written: not given here.

Tests used:
human red blood cells = test: Cytotoxicity: hemolysis of human red blood cells; assay type: cell-based
Experimental: The cytotoxicity of the selected IAPS was performed using human red blood cells in strict accordance with relevant guidelines and regulations (Ethical committee – UnB # 1.939.989). Different concentrations of IAPs (128 µM–0.5 µM) were incubated with a final concentration of 2.5 × 10^5 red blood cells.mL^−1. Briefly, 100 µL of red blood cells was incubated with 100 µL of different concentrations of each IAP, prepared in PBS, for 30 minutes at 37 °C, with constant shaking at 120 rpm. PBS and Triton X-100 0.1% (v/v) were used as negative and positive controls, respectively. After incubation, the solution was centrifuged at 900 × g for five minutes followed by transferring 50 µL of the supernatant to flat-bottom polystyrene 96-well micro plates containing 50 µL of PBS. Microplate reading was performed at a BioTek Multireader, using a wavelength of 540 nm. All tests were performed in 3 biological replicates, composed of 3 biological repetitions each. The obtained data was subtracted by the negative control and relative to the positive control, defined as 100% lysis.

[1] = tested on: Moniliophthora perniciosa basidiospores; test: Inhibition of M. perniciosa basidiospore germination; assay type: cell-based; details: 1 × 10^6 basidiospores mL^−1, one hour with peptide (256-0.5 µM), 24 °C, counted after 4 hours on agar slides, biological triplicates
Experimental: The antimicrobial potential of T. cacao IAPs for inhibiting M. perniciosa basidiospores was evaluated. Briefly, 1 × 10^6 basidiospores mL^−1 were incubated for one hour with different concentrations of T. cacao IAPs (256-0.5 µM), at 24 °C, in a final volume of 100 µL. Autoclaved dH20 was used as a control. After incubation, 3 droplets of 10 µL each were placed in a slide coated with agar (1.2% (w/v)). Slides were incubated for 4, 24 and 48 hours at 24 °C. Slides were visualized using a DMRXA light microscope (Leica). Approximately 150–200 basidiospores per droplet from each time point were counted and compared to the control condition, which was defined as 100% germination. All experiments were performed in biological triplicates, with 3 technical repetitions each.

[2] = Far-UV circular dichroism, helix percentage in buffer and with LUVs; assay type: physicochemical; details: room temperature, from [θ]222 nm, * = β-sheet structure; for %Hel 2:1 DMPC/DMPG: 40 μM peptide + 2 mM 2:1 DMPC:DMPG LUVs (50 fold excess); for %Hel 2:1 DMPC/DMPG / %Hel DMPC: pH 7.4 buffer; for %Hel DMPC: 40 μM peptide + 2 mM DMPC LUVs (50 fold excess); for %Hel buffer: 40 μM peptide in 20 mM sodium phosphate, 150 mM NaCl, pH 7.4
Experimental: DMPC and 2:1 DMPC:DMPG (w/w) were dissolved in chloroform and methanol (3:1 v/v) at 10 mg/mL, dried using a rotary evaporator and left 3 hours under high vacuum in a freeze dryer. Phospholipids were then dissolved in 20 mM Sodium phosphate – NaOH, 150 mM NaCl, pH 7.4 and hand-shaken until the formation of a cloudy solution, which was passed 19 times through a 100 nm polycarbonate membrane at 30 °C for the formation of large unilamelar vesicles (LUVs) using a mini-extruder (Avanti Polar Lipids). Phospholipid concentration was estimated according to the ammonium ferrothiocyanate method.
Experiments were conducted on a Jasco-J815 spectropolarimeter (Jasco International Co.). Spectra were acquired at room temperature from 200 to 260 nm as an average of 4 readings using a 0.1 cm path length cell, data pitch of 0.2 nm and a response time of 0.5 s. Data Scans of buffer and 2 mM DMPC and 2:1 DMPC:DMPG LUVs solutions were acquired and subtracted from each peptide data. Peptides were scanned at a concentration of 40 μM in buffer and then 50 fold excess of DMPC and 2:1 DMPC:DMPG LUVs were added, resulting in a molar ratio of 0.02 peptide/phospholipid. The spectra were converted to mean residue ellipticity and readings at [θ]222 nm were used to estimate helix percentages.

Substance | Hemolytic activity (% ± SD) at 1 µM (human red blood cells) [%] | Hemolytic activity (% ± SD) at 2 µM (human red blood cells) [%] | Hemolytic activity (% ± SD) at 4 µM (human red blood cells) [%] | Hemolytic activity (% ± SD) at 8 µM (human red blood cells) | Hemolytic activity (% ± SD) at 16 µM (human red blood cells) [%] | Hemolytic activity (% ± SD) at 32 µM (human red blood cells) [%] | Hemolytic activity (% ± SD) at 64 µM (human red blood cells) | Hemolytic activity (% ± SD) at 128 µM (human red blood cells) [%] | Hemolytic activity of human red blood cells (%) SC50 (human red blood cells) [µM] | Concentration that induced 50% hemolysis (human red blood cells; red cells of human) [µM] | IC50 ([1]; concentration at which at least 50% of basidiospores germination was inhibited, read-out: Inhibitory concentration IC50, M. perniciosa basidiospores germination) [µM] | Inhibitory concentration IC95, M. perniciosa basidiospores germination ([1]; concentration at which at least 95% of basidiospores germination was inhibited) [µM] | %Hel 2:1 DMPC/DMPG [2] [%] | %Hel DMPC [2] [%] | %Hel buffer [2] [%] | Hemolytic activity of human red blood cells (%) SC50 (human red blood cells; SC50 = IAP concentration that at least 50% of red blood cells remain intact, 128 µM–0.5 µM tested, PBS, 30 minutes, 37 °C, absorbance 540 nm) [µM]
ANRLLEAYKMLLKFLGNLR-NH2 [Gr02] | 0.01 ± 0.01 | 0.38 ± 0.09 | 1.23 ± 0.05 | 4.19 ± 0.78% | 7.01 ± 3.48 | 28.33 ± 4.77 | 46.44 ± 7.63% | 68.42 ± 5.45 | 64 | 64 |  |  |  |  |  | 
FFYNVIKIYGNMAGRISK-NH2 [Cs03] | 0.00 ± 0.00 | 0.02 ± 0.00 | 0.01 ± 0.00 | 0.00 ± 0.00% | 0.21 ± 0.05 | 0.99 ± 0.34 | 4.11 ± 1.22% | 14.51 ± 1.55 | >128 |  |  |  |  |  |  | 
GAKLAKKQVRALGKFFSF-NH2 [At03] | 0.00 ± 0.00 | 0.00 ± 0.00 | 0.04 ± 0.01 | 0.02 ± 0.00% | 0.00 ± 0.00 | 0.03 ± 0.00 | 0.17 ± 0.08% | 0.34 ± 0.11 | >128 |  |  |  |  |  |  | 
GFKDLLKGAAKALVKTVLF-NH2 [Asc-8, Ascaphin-8, reference compound] | 0.00 ± 0.00 | 0.32 ± 0.1 | 0.26 ± 0.2 | 14.72 ± 0 .79% | 28.10 ± 4.76 | 54.35 ± 4.5 | 91.90 ± 6.36% | 101.56 ± 9.52 | 16 |  | 8 | 16 |  |  |  | 
GIVLKDLFSEKLRRYKIVIG [Tc09, IAP from Theobroma cacao, NB-ARC domain-containing disease resistance protein, putative] |  |  |  |  |  |  |  |  |  |  |  |  | 0.0 | 19.3 | 12.3 | 
GLYNFIKVLGRTVFGLYKQF-NH2 [At04] | 0.00 ± 0.00 | 0.00 ± 0.00 | 0.00 ± 0.00 | 0.09 ± 0.04% | 0.40 ± 0.10 | 0.91 ± 0.20 | 4.12 ± 1.41% | 13.8 ± 2.41 | >128 |  |  |  |  |  |  | 
GSLHGFMYKYLKNMVLTLF-NH2 [At01] | 0.00 ± 0.00 | 0.00 ± 0.00 | 0.00 ± 0.00 | 0.00 ± 0.00% | 0.19 ± 0.01 | 1.05 ± 0.22 | 5.04 ± 2.39% | 14.6 ± 2.14 | >128 |  |  |  |  |  |  | 
IKLRNVLKYLFRIDVIKEDIL-NH2 [Tc03] | 0.03 ± 0.00 | 0.04 ± 0.03 | 0.00 ± 0.00 | 0.17 ± 0.04% | 0.09 ± 0.01 | 0.67 ± 0.30 | 2.29 ± 1.18% | 7.89 ± 1.44 | >128 |  |  |  |  |  |  | 
KVLSKVHTLLKAVLAL-NH2 [At02] | 0.04 ± 0.00 | 0.03 ± 0.00 | 0.02 ± 0.00 | 0.00 ± 0.00% | 0.30 ± 0.16 | 2.41 ± 0.98 | 10.28 ± 4.3% | 23.10 ± 3.41 | >128 |  |  |  |  |  |  | 
LHRLVKLVAALLRGYASKVDTH [Tc08] | 0.11 ± 0.04 | 0.11 ± 0.09 | 0.27 ± 0.10 | 0.30 ± 0.05% | 2.00 ± 1.13 | 15.47 ± 1.58 | 28.81 ± 2.6 7% |  |  |  |  |  |  |  |  | >128
LIKVVNHVQYNVTLHWHGIR [Tc07, IAP from Theobroma cacao, Laccase 17] |  |  |  |  |  |  |  |  |  |  |  |  | 19.9 | 17.1 | 23.5 | 
LLDKLKRTLLSIEAVLI [Tc11, IAP from Theobroma cacao, LRR and NB-ARC domains-containing disease resistance protein] |  |  |  |  |  |  |  |  |  |  |  |  | 56.7 | 57.0 | 45.8 | 
RVLKDVESALRESVANWKIVIG [Tc04, IAP from Theobroma cacao, Purple acid phosphatase 3] |  |  |  |  |  |  |  |  |  |  |  |  | 36.3 | 15.8 | 14.3 | 
VALRLAKEVIKVQQGW [Tc01, IAP from Theobroma cacao, Embryo defective 1381 isoform 2] |  |  |  |  |  |  |  |  |  |  |  |  | 64.8 | 4.5 | 5.0 | 
